Experimental data: PMC9105941, “A New Xanthone Glycoside from Mangifera indica L.: Physicochemical Properties and In Vitro Anti-Skin Aging Activities” (Molecules, 2022)
Each block holds one molecule with its values, some of them ahead of it. Peptide text beside a SMILES is read from it. * marks the point of attachment. MeOSuc = COC(=O)CCC(=O)*; CH2Cl = ClC*

Key:
Type in all cases: biochemical
[1] = molecular target: elastase (Sus scrofa, UniProt P00772); test: EnzChek Elastase Assay Kit, anti-elastase activity; details: fluorometric kit, 37 °C, 30 min kinetic
Chain of elastase (P00772 27-266): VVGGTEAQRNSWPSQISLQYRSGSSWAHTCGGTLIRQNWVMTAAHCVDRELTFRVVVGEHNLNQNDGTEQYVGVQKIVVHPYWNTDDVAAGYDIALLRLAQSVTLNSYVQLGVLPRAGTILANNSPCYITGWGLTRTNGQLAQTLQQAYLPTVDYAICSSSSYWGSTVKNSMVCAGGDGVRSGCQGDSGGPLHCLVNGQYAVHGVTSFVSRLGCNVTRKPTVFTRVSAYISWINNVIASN
Experimental: Anti-elastase activity of the compound was investigated using the EnzChek® Elastase Assay Kit (E-12056) according to the previously reported method. The tested compound and reference control were prepared in concentrations of 0.1, 1, 10, and 100 µg/mL for the analysis. The compound was prepared in 96-well plates with clear bottoms for the fluorometric assay. Briefly, elastase enzyme solutions, elastase substrate, and inhibitor control were prepared as recommended. Diluted elastase solution was then added to the wells. Tested compound, inhibitor control, and enzyme control were added to subsequent wells. The samples were mixed on a shaker and then incubated for 5 min at 37 °C. Assay buffer was mixed with the substrate to prepare the fluorometric reaction mix, which was then added and mixed thoroughly with each sample. The fluorescence was measured immediately at 400 nm excitation wavelength and 505 nm emission wavelength using a microplate reader (FilterMax F5, Thermo Fisher, Waltham, MA, USA). The measurement was made in kinetic mode at 37 °C for 30 min protected from light. All tested samples were prepared and assayed in duplicate and the elastase inhibitory effect of the tested compound was calculated applying the following equation: %Relative inhibition=ΔRFU(test inhibitor)/ΔRFU×100 where: • ΔRFU = a change in relative fluorescence units • EC = enzyme control

[2] = molecular target: tyrosinase; test: Tyrosinase Inhibitor Screening Colorimetric Assay Kit; details: 25 °C, 510 nm
Experimental: The inhibitory activities of oils were tested against collagenase using the Abcam® Tyrosinase Inhibitor Screening Colorimetric Assay Kit (catalog # ab204715). The assay was carried out according to the provided manual. […] The tested compound was prepared in concentrations ranging from 0.1 to 100 µg/mL for the analysis. About 2 μL of provided tyrosinase was mixed with 48 μL of tyrosinase assay buffer. The samples of essential oils or standard (20 μL) were mixed with the enzyme mixture (50 μL) and incubated at 25 °C for 10 min. Then, 30 μL of tyrosinase substrate solution was added to the wells of essential oils and standard. Afterward, the plate was measured spectrophotometrically at a wavelength of 510 nm for 30–60 min at 25 °C.

[3] = molecular target: collagenase; test: fluorometric collagenase inhibitor screening kit; details: 37 °C, 60 min kinetic
Experimental: The inhibitory ability of the isolated compound against collagenase activity was assessed using a fluorometric collagenase inhibitor screening kit (BioVision, catalog no. # K833-100) according to the previously described method. The reference control was (1,10)-phenanthroline. The tested compound and reference control were prepared in concentrations of 1, 10, 100, and 1000 ug/mL for the analysis. The tested compound was prepared in a 96-well plate with a flat bottom. First, the collagenase substrate was dissolved in collagenase assay buffer (CAB). The sample for analysis was prepared by mixing the compound with both collagenase and CAB. Preparing inhibitor control samples was performed by mixing the inhibitor ((1,10)-phenanthroline (80 mM)) with the diluted collagenase enzyme and CAB buffer. Enzyme control was prepared by mixing the diluted collagenase with CAB. The CAB buffer was used as the background control. All samples were incubated at room temperature for 15 min. […] The fluorescence was measured immediately at 490 nm excitation wavelength and 520 nm emission wavelength using a microplate reader (FilterMax F5, Thermo Fisher). […] Samples were prepared in duplicate and the collagenase inhibitory effect of the tested compound was calculated applying the following equation: % Relative inhibition=Enzyme control−sample/Enzyme control×100

anti-elastase IC50 [1]: 0.63 µg/mL
SMILES: COC(=O)CCC(=O)N[C@@H](C)C(=O)N[C@@H](C)C(=O)N1CCC[C@H]1C(=O)N[C@H](C(=O)CCl)C(C)C [N-methoxysuccinyl-Ala-Ala-Pro-Val-chloromethyl ketone] (MeOSuc-AAPV-CH2Cl)

anti-tyrosinase IC50 [2]: 0.48 µg/mL
SMILES: O=c1c2ccc(O)c(O)c2oc2c(C3OC(CO)C(O)C(O)C3O)c(O)cc(O)c12 [isolated compound, 1,3,5,6-tetrahydroxyxanthone-C-4-β-D-glucopyranoside]

SMILES: c1cnc2c(c1)ccc1cccnc12 [phenanthroline, (1,10)-phenanthroline]
anti-collagenase IC50 [3]: 182.80 µg/mL
